From paper PMC2748089, “Bactericidal activities of the cationic steroid CSA-13 and the cathelicidin peptide LL-37 against Helicobacter pylori in simulated gastric juice” (BMC Microbiology, 2009)
Read-outs that look alike come from different tables or passages of the source. Ends that are not written are not given here.

Key:
H. pylori [1] = assay: MIC of conventional antibiotics against H. pylori on Muller-Hinton agar; format: cell-based, Helicobacter pylori; conditions: for MIC: Helicobacter pylori; for Susceptibility classification by MIC: all H. pylori isolates, resistant when MIC above 4 μg/ml for AMX, 16 μg/ml for TET
pepsin = pepsin (Sus scrofa, UniProt P00791); assay: LC-MS analytical characterization after incubation with pepsin at low pH; conditions: 3 h incubation with pepsin 0.5 mg/ml at pH ~1.5, 37°C; LC-MS (C18, ESI positive); data from one experiment
pepsin, sequence (P00791 60-385): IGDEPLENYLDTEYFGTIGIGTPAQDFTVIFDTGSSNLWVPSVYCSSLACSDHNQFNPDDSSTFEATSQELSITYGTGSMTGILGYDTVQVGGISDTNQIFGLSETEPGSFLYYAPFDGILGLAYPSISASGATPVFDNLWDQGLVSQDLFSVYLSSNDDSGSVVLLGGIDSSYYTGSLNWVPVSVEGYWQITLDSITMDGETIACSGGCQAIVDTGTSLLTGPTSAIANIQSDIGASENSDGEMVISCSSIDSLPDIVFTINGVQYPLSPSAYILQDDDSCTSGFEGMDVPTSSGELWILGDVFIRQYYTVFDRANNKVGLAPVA
Protocol: The total ion chromatogram (TIC) is presented for each sample condition with an inset mass-to-charge (m/z) spectra showing intensity for the boxed TIC peaks. The molecular weight of intact LL-37 is 4494, which can be observed with multiple charges (m/z = 4 MW = 1124, m/z = 5 MW = 900, etc) in positive ion mode. The molecular weight of CSA13 is 678, which can be observed directly and with multiple charges. Data from one experiment are shown.
Analytical characterization was performed on the CSA-13 and LL-37 suspensions after 3H incubation with pepsin (0.5 mg/ml) at low pH (~1,5) at 37°C, using the Shimadzu (Columbia, MD) instrument (the LC-MS system consisted of a LC-20AB solvent delivery system and SIL-20A auto-sampler coupled to dual wavelength UV-Vis detector and a LCMS 2010EV single quadrupole mass spectrometer), coupled to a Shimadzu Premier C18 column (150 mm × 4.6 mm i.d., 5 μm particle size). The mobile phase flow rate was 1 ml/min with a starting ratio of 90% mobile phase A (water) and 10% mobile phase B (acetonitrile) both with 0.1% (v/v) formic acid. The analytical method consisted of the following steps: (i) sample injection and holding at 10% B for 5 min, (ii) linear gradient from 10% to 90% B over 15 minutes, (iii) holding at 90% B for 5 minutes, (iv) isocratic step to 10% B and holding for 5 minutes prior to the next sample injection. […]

human red blood cells = tested on: human red blood cells
Protocol: (§1) Figure 5 Evaluation of cell toxicity. Hemoglobin and LDH release from human red blood cells and human gastric adenocarcinoma cells (panel A and B respectively) after addition of LL-37 (circles), WLBU2 (diamonds), and CSA-13 (triangles), followed by incubation for 1 h at 37°C. Data shown are means ± SD of three experiments. Morphology of human gastric adenocarcinoma cells before (control) and after LL-37, WLBU2 and CSA-13 treatment was evaluated by phase-contrast microscopy (panel C). Data from one representative experiment are shown.
The hemolytic activity of LL-37, WLBU-2 and CSA-13 (0-200 μg/ml), against human red blood cells (RBC) was tested using erythrocytes suspended in PBS. RBC prepared from fresh blood (Hematocrit ~5%) were incubated for 1 h at 37°C after addition of test molecules. Relative hemoglobin concentration in supernatants after centrifugation at 2000 × g was monitored by measuring the absorbance at 540 nm. 100% hemolysis was taken from samples in which 2% Triton X-100 was added.

[2] = tested on: Human gastric adenocarcinoma cells (ATCC; CRL-1739); conditions: 10 μg/ml, 1 hour; phase-contrast microscopy
Protocol: as §1
Human gastric adenocarcinoma cells (ATCC; CRL-1739) were maintained in DMEM (BioWhittaker) culture supplemented with 10% heat-inactivated fetal bovine serum (Hyclone) at 37°C and 5% CO2. For LDH release assay and microscope evaluation cells were plated in 24 well plates and grown to confluence. In all experiments, the medium was changed to serum-free media ~12 h prior to cell treatment with LL-37, WLBU2 and CSA-13 (0-200 μg/ml) in individual wells, for 1 hour. Cell culture medium was then collected, centrifuged (10 mins, 5000 rpm, RT) and subjected to LDH evaluation (LDH-cytotoxicity Assay Kit; BioVision Inc.)

Escherichia coli MG1655 = assay: Bacteria killing assay after pre-incubation in simulated gastric juice, or with mucin or bile; conditions: E. coli MG1655, CFU count; for Antibacterial activity after pre-incubation at pH ~1.5 in the presence of pepsin: 3 h pre-incubation at 37°C in simulated gastric juice pH ~1.5 with pepsin 0.5 mg/ml; for Antibacterial activity after pre-incubation at pH ~1.5 in the presence of pepsin / Antibacterial activity after pre-incubation at pH ~1.5: versus PBS pH 7.4, pH adjusted to 7.4 before 1 h killing assay, means of three to four experiments; for Antibacterial activity after pre-incubation at pH ~1.5: 3 h pre-incubation at 37°C in simulated gastric juice pH ~1.5 without pepsin
H. pylori [3] = conditions: for Change of MBC on addition of 2 mM MgCl2: HEPES buffer with 2 mM MgCl2 versus HEPES, data not shown
drug-resistant bacteria = conditions: previous susceptibility study; cited from earlier work
[4] = tested on: Human gastric adenocarcinoma cells (ATCC; CRL-1739); assay: LDH release from gastric adenocarcinoma cells; format: cell-based; conditions: bactericidal concentrations against H. pylori and E. coli MG1655 in saline and nutrient containing buffer
Source text: Figure 5 Evaluation of cell toxicity. […] Data shown are means ± SD of three experiments. […] Data from one representative experiment are shown.

[5] = H. pylori clinical strains 5, 6, 7, resistant when MIC above 1 μg/ml for CLR, 16 μg/ml for Metronidazole
[6] = 96 h, H. pylori clinical strain 2, Muller-Hinton agar with 5% sheep blood, 4 days at 35°C, microaerophilic, read-out: MIC
[7] = 96 h, H. pylori clinical strain 3, Muller-Hinton agar with 5% sheep blood, 4 days at 35°C, microaerophilic, read-out: MIC
[8] = 96 h, H. pylori clinical strain 4, Muller-Hinton agar with 5% sheep blood, 4 days at 35°C, microaerophilic, read-out: MIC
[9] = 96 h, H. pylori clinical strain 5, Muller-Hinton agar with 5% sheep blood, 4 days at 35°C, microaerophilic, read-out: MIC
[10] = 96 h, H. pylori clinical strain 6, Muller-Hinton agar with 5% sheep blood, 4 days at 35°C, microaerophilic, read-out: MIC
[11] = 96 h, H. pylori clinical strain 7, Muller-Hinton agar with 5% sheep blood, 4 days at 35°C, microaerophilic, read-out: MIC
[12] = HEPES buffer, 6 hours incubation at 37°C, inoculum 10^8 CFU/ml, all isolated strains of H. pylori
[13] = 96 h, H. pylori clinical strain 1, Muller-Hinton agar with 5% sheep blood, 4 days at 35°C, microaerophilic, read-out: MIC

## CC[C@H]1OC(=O)[C@H](C)[C@@H](O[C@H]2C[C@@](C)(OC)[C@@H](O)[C@H](C)O2)[C@H](C)[C@@H](O[C@@H]2O[C@H](C)C[C@H](N(C)C)[C@H]2O)[C@](C)(OC)C[C@@H](C)C(=O)[C@H](C)[C@@H](O)[C@]1(C)O [CLR, clarithromycin]
H. pylori [1]; [5]
  Resistance classification by MIC: resistant
H. pylori [1]; 96 h
  MIC: 0.125 µg/mL
H. pylori [1]; [6]
  MIC: 0.19 µg/mL
H. pylori [1]; [7]
  MIC: 0.25 µg/mL
H. pylori [1]; [8]
  MIC: 0.047 µg/mL
H. pylori [1]; [9]
  MIC: 64 µg/mL
H. pylori [1]; [10]
  MIC: 1.5 µg/mL
H. pylori [1]; [11]
  MIC: 1.5 µg/mL
H. pylori [1]; ATCC43504, 96 h, read-out: MIC
  MIC: 0.094 µg/mL

## CCCCCCCCNCCC[C@@H](C)[C@H]1CC[C@H]2[C@@H]3[C@H](OCCCN)C[C@@H]4C[C@H](OCCCN)CC[C@]4(C)[C@H]3C[C@H](OCCCN)[C@]12C [CSA-13]
pepsin
  Stability to pepsin at low pH (mass spectrometry analysis): not changed
Human red blood cells; bactericidal concentrations against H. pylori and E. coli MG1655 in saline and nutrient containing buffer
  Bactericidal concentrations relative to minimal hemolytic concentration: below its minimal hemolytic concentration
[2]
  Adenocarcinoma cell morphology versus control cells: no visible difference
Escherichia coli MG1655
  Antibacterial activity after pre-incubation at pH ~1.5 in the presence of pepsin: unchanged
  Antibacterial activity after pre-incubation at pH ~1.5: unchanged
Escherichia coli MG1655; mucin 1000 μg/ml, 1 h killing assay at 37°C
  Bactericidal activity in the presence of purified gastric mucin: less inhibited by mucin
H. pylori [3]
  average MBC: 2.98 ± 3.11 µg/mL
H. pylori [3]; H. pylori ATCC 43504, 1 h pre-incubation at 37°C in simulated gastric juice pH ~1.5 with pepsin or mucin
  MBC after pre-incubation with buffer at low pH containing pepsin or mucin: nearly unchanged
H. pylori [3]; H. pylori ATCC 43504
  Change of MBC on addition of 2 mM MgCl2: four fold increase
H. pylori [3]; [12]
  average MBC: 0.31 ± 0.25 µg/mL
H. pylori [3]; nutrient-containing media, clinical isolates of H. pylori
  MBC (minimum bactericidal concentration), range over strains: 0.275 to 8.9 µg/mL
drug-resistant bacteria
  MIC50/MBC50 ratio: 1
[4]
  Bactericidal concentrations relative to concentrations causing dysfunction of adenocarcinoma cell membranes: below concentrations causing dysfunction of adenocarcinoma cell membranes

## CN(C)[C@@H]1C(O)=C(C(N)=O)C(=O)[C@@]2(O)C(O)=C3C(=O)c4c(O)cccc4[C@@](C)(O)[C@H]3C[C@@H]12 [TET, tetracycline]
H. pylori [1]
  Susceptibility classification by MIC: susceptible

## RRWVRRVRRWVRRVVRVVRRWVRR [WLBU2]
Human red blood cells; RBC in PBS, hematocrit ~5%, 0-200 μg/ml, 1 h at 37°C, absorbance at 540 nm, 100% = 2% Triton X-100, means of three experiments
  Hemoglobin release from human red blood cells: strongest hemolytic agent
[2]
  Adenocarcinoma cell morphology versus control cells: no visible difference
Escherichia coli MG1655
  Antibacterial activity after pre-incubation at pH ~1.5: not significantly changed
H. pylori [3]; H. pylori ATCC 43504
  Change of MBC on addition of 2 mM MgCl2: four fold increase

## CC[C@H](C)[C@H](NC(=O)[C@H](CCCCN)NC(=O)[C@H](CCC(=O)O)NC(=O)[C@H](CCCCN)NC(=O)[C@H](CO)NC(=O)[C@H](CCCCN)NC(=O)[C@H](CCCNC(=N)N)NC(=O)[C@H](Cc1ccccc1)NC(=O)[C@H](Cc1ccccc1)NC(=O)[C@H](CC(=O)O)NC(=O)CNC(=O)[C@H](CC(C)C)NC(=O)[C@@H](N)CC(C)C)C(=O)NCC(=O)N[C@@H](CCCCN)C(=O)N[C@@H](CCC(=O)O)C(=O)N[C@@H](Cc1ccccc1)C(=O)N[C@@H](CCCCN)C(=O)N[C@@H](CCCNC(=N)N)C(=O)N[C@H](C(=O)N[C@H](C(=O)N[C@@H](CCC(N)=O)C(=O)N[C@@H](CCCNC(=N)N)C(=O)N[C@H](C(=O)N[C@@H](CCCCN)C(=O)N[C@@H](CC(=O)O)C(=O)N[C@@H](Cc1ccccc1)C(=O)N[C@@H](CC(C)C)C(=O)N[C@@H](CCCNC(=N)N)C(=O)N[C@@H](CC(N)=O)C(=O)N[C@@H](CC(C)C)C(=O)N[C@H](C(=O)N1CCC[C@H]1C(=O)N[C@@H](CCCNC(=N)N)C(=O)N[C@H](C(=O)N[C@@H](CCC(=O)O)C(=O)N[C@@H](CO)C(=O)O)[C@@H](C)O)C(C)C)[C@@H](C)CC)C(C)C)[C@@H](C)CC [LL-37]
pepsin
  Stability to pepsin at low pH (mass spectrometry analysis): extensive degradation
[2]
  Adenocarcinoma cell morphology versus control cells: no visible difference
Escherichia coli MG1655
  Antibacterial activity after pre-incubation at pH ~1.5 in the presence of pepsin: lost
H. pylori [3]; 6 h
  average MBC: 300 ± 232 µg/mL
H. pylori [3]; [12]
  average MBC: 8.9 ± 4.03 µg/mL

## CC1(C)S[C@@H]2[C@H](NC(=O)[C@H](N)c3ccc(O)cc3)C(=O)N2[C@H]1C(=O)O [AMX, Amoxicillin]
H. pylori [1]; [13]
  MIC: 0.094 µg/mL
H. pylori [1]; [6]
  MIC: < 0.016 µg/mL
H. pylori [1]; [7]
  MIC: 0.016 µg/mL
H. pylori [1]; [8]
  MIC: 0.032 µg/mL
H. pylori [1]; [9]
  MIC: 0.25 µg/mL
H. pylori [1]; [10]
  MIC: 0.032 µg/mL
H. pylori [1]; [11]
  MIC: 0.047 µg/mL
H. pylori [1]; ATCC43504, 96 h, read-out: MIC
  MIC: 0.016 µg/mL
H. pylori [1]
  Susceptibility classification by MIC: susceptible

## Cc1ncc([N+](=O)[O-])n1CCO [Metronidazole, metronidazole]
H. pylori [1]; H. pylori clinical strain 4, resistant when MIC above 16 μg/ml for Metronidazole
  Resistance classification by MIC: resistant
H. pylori [1]; [5]
  Resistance classification by MIC: resistant
H. pylori [1]; [13]
  MIC: 0.19 µg/mL
H. pylori [1]; [6]
  MIC: 0.094 µg/mL
H. pylori [1]; [7]
  MIC: 0.5 µg/mL
H. pylori [1]; [8]
  MIC: 32 µg/mL
H. pylori [1]; [9]
  MIC: 96 µg/mL
H. pylori [1]; [10]
  MIC: 32 µg/mL
H. pylori [1]; [11]
  MIC: 48 µg/mL
H. pylori [1]; ATCC43504, 96 h, read-out: MIC
  MIC: 64 µg/mL
